Test results from patent publication US10988462B2, “Pyrazole compounds substituted with heteroaryl and pharmaceutical use thereof” (Japan Tobacco Inc., priority 2018, dated 2021).

Legend:
[1] = tested on: Salmonella typhimurium TA100; experiment: Ames test (reverse mutation test), pre-incubation method, strain TA100; assay type: cell-based; conditions: for potential to induce reverse mutations: TA100, in the presence of S9 mix
Procedure: (§1) Ames Test (Reverse Mutation Test)
(§2) Metabolites 1 to 3 and Metabolites A to E were each tested herein. The purpose of this test is to evaluate the potential of each metabolite to induce reverse mutations in the standard strains of Salmonella typhimurium (TA98, TA1537, TA100, and TA1535) and Escherichia coli (WP2uvrA), in either the presence or absence of a rat liver metabolic activation system (S9 mix).
(§3) The solvent used herein was dimethyl sulfoxide (DMSO, 100 μL/plate).
(§4) The test was performed by the pre-incubation method with or without S9 mix. When the test was performed without S9 mix, sodium phosphate buffer solution (pH 7.4) was added.
(§5) 0.5 mL of S9 mix or 0.5 mL of 0.1 mol/L sodium phosphate buffer solution (pH 7.4), and 0.1 mL of the bacterial culture solution were added to a test tube containing 0.1 mL of the negative control formulation (DMSO alone), the metabolite, or the positive control formulation. The mixtures were pre-incubated at 37° C. for 20 minutes while shaking. After the pre-incubation period, 2 mL of top agar were added and the mixtures were vortex-mixed and seeded onto plates. Two plates per treatment were used. Each plate was incubated at 37±1° C. for 48 hours or more and the revertant colonies were counted. The mean number of revertant colonies for each treatment plate was then calculated. The presence or absence of growth inhibition due to any antibacterial effect of the test article and precipitation of the test article was observed grossly or under a stereomicroscope. […] Evaluation was based on mean values with no statistical comparisons being used.

[2] = tested on: Salmonella typhimurium TA98; experiment: Ames test (reverse mutation test), pre-incubation method, strain TA98; conditions: for potential to induce reverse mutations: TA98, in the presence of S9 mix
Procedure: as §1, §2, §3, §4, §5

[3] = tested on: Salmonella typhimurium TA1537; experiment: Ames test (reverse mutation test), pre-incubation method, strain TA1537; assay type: cell-based; conditions: for potential to induce reverse mutations: TA1537, in the presence of S9 mix
Procedure: as §1, §2, §3, §4, §5

Escherichia coli WP2uvrA = experiment: Ames test (reverse mutation test), pre-incubation method, strain WP2uvrA; assay type: cell-based
Description: as §1
Two plates per treatment were used.

[4] = tested on: Salmonella typhimurium TA1535; experiment: Ames test (reverse mutation test), pre-incubation method, strain TA1535; assay type: cell-based; conditions: TA1535; in the absence of S9 mix
Procedure: as §1, §2, §3, §4, §5

Cc1cccc(-n2nc(N)cc2-c2cccc(OC(F)(F)F)c2)c1 [Metabolite E, reference compound]
potential to induce reverse mutations [1]: had potential to induce reverse mutations | potential to induce reverse mutations [2]: had potential to induce reverse mutations | potential to induce reverse mutations [3]: had potential to induce reverse mutations

Nc1cc(-c2cc(F)cc(OC(F)(F)F)c2)n(-c2cncc(F)c2)n1 [Metabolite 2]
Number of revertant colonies WP2uvrA (Escherichia coli WP2uvrA; S9 mix +, dose 6.9 μg/plate): 19 | Number of revertant colonies WP2uvrA (Escherichia coli WP2uvrA; S9 mix +, dose 21 μg/plate): 19 | Number of revertant colonies WP2uvrA (Escherichia coli WP2uvrA; S9 mix +, dose 62 μg/plate): 19 | Number of revertant colonies WP2uvrA (Escherichia coli WP2uvrA; S9 mix +, dose 185 μg/plate): 19 | Number of revertant colonies WP2uvrA (Escherichia coli WP2uvrA; S9 mix +, dose 556 μg/plate): 17 | Number of revertant colonies WP2uvrA (Escherichia coli WP2uvrA; S9 mix +, dose 1667 μg/plate): 14 | Number of revertant colonies WP2uvrA (Escherichia coli WP2uvrA; S9 mix +, dose 5000 μg/plate): 9 | Number of revertant colonies WP2uvrA (Escherichia coli WP2uvrA; S9 mix −, dose 6.9 μg/plate): 21 | Number of revertant colonies WP2uvrA (Escherichia coli WP2uvrA; S9 mix −, dose 21 μg/plate): 16 | Number of revertant colonies WP2uvrA (Escherichia coli WP2uvrA; S9 mix −, dose 62 μg/plate): 23 | Number of revertant colonies WP2uvrA (Escherichia coli WP2uvrA; S9 mix −, dose 185 μg/plate): 20 | Number of revertant colonies WP2uvrA (Escherichia coli WP2uvrA; S9 mix −, dose 556 μg/plate): 16 | Number of revertant colonies WP2uvrA (Escherichia coli WP2uvrA; S9 mix −, dose 1667 μg/plate): 13 | Number of revertant colonies WP2uvrA (Escherichia coli WP2uvrA; S9 mix −, dose 5000 μg/plate): 8 | Number of revertant colonies TA100 ([1]; S9 mix +, dose 6.9 μg/plate): 109 | Number of revertant colonies TA100 ([1]; S9 mix +, dose 21 μg/plate): 119 | Number of revertant colonies TA100 ([1]; S9 mix +, dose 62 μg/plate): 118 | Number of revertant colonies TA100 ([1]; S9 mix +, dose 185 μg/plate): 125 | Number of revertant colonies TA100 ([1]; S9 mix +, dose 556 μg/plate): 115 | Number of revertant colonies TA100 ([1]; S9 mix +, dose 1667 μg/plate): 97 | Number of revertant colonies TA100 ([1]; S9 mix +, dose 5000 μg/plate): 92 | Number of revertant colonies TA100 ([1]; S9 mix −, dose 6.9 μg/plate): 89 | Number of revertant colonies TA100 ([1]; S9 mix −, dose 21 μg/plate): 90 | Number of revertant colonies TA100 ([1]; S9 mix −, dose 62 μg/plate): 87 | Number of revertant colonies TA100 ([1]; S9 mix −, dose 185 μg/plate): 86 | Number of revertant colonies TA100 ([1]; S9 mix −, dose 556 μg/plate): 6 | Number of revertant colonies TA100 ([1]; S9 mix −, dose 1667 μg/plate): 5 | Number of revertant colonies TA100 ([1]; S9 mix −, dose 5000 μg/plate): 5 | Number of revertant colonies TA98 ([2]; S9 mix +, dose 62 μg/plate): 35 | Number of revertant colonies TA98 ([2]; S9 mix −, dose 21 μg/plate): 30 | Number of revertant colonies TA98 ([2]; S9 mix −, dose 185 μg/plate): 28 | Number of revertant colonies TA1537 ([3]; S9 mix +, dose 6.9 μg/plate): 12 | Number of revertant colonies TA1537 ([3]; S9 mix +, dose 21 μg/plate): 13 | Number of revertant colonies TA1537 ([3]; S9 mix +, dose 62 μg/plate): 12 | Number of revertant colonies TA1537 ([3]; S9 mix +, dose 185 μg/plate): 12 | Number of revertant colonies TA1537 ([3]; S9 mix +, dose 556 μg/plate): 8 | Number of revertant colonies TA1537 ([3]; S9 mix +, dose 1667 μg/plate): 0 | Number of revertant colonies TA1537 ([3]; S9 mix +, dose 5000 μg/plate): 1 | Number of revertant colonies TA1537 ([3]; S9 mix −, dose 6.9 μg/plate): 9 | Number of revertant colonies TA1537 ([3]; S9 mix −, dose 21 μg/plate): 8 | Number of revertant colonies TA1537 ([3]; S9 mix −, dose 62 μg/plate): 8 | Number of revertant colonies TA1537 ([3]; S9 mix −, dose 185 μg/plate): 8 | Number of revertant colonies TA1537 ([3]; S9 mix −, dose 556 μg/plate): 3 | Number of revertant colonies TA1537 ([3]; S9 mix −, dose 1667 μg/plate): 3 | Number of revertant colonies TA1537 ([3]; S9 mix −, dose 5000 μg/plate): 2

CC(C)(OCc1cc(F)cc(-c2cc(N)nn2-c2ccc(F)cc2)c1)C(F)(F)F [Metabolite A, reference compound]
potential to induce reverse mutations [2]: had potential to induce reverse mutations | potential to induce reverse mutations [3]: had potential to induce reverse mutations

Cc1ccc(-n2nc(N)cc2-c2cccc(OCC(F)(F)F)c2)cc1 [Metabolite C, reference compound]
potential to induce reverse mutations (Escherichia coli WP2uvrA; WP2uvrA, in the absence of S9 mix): had potential to induce reverse mutations | potential to induce reverse mutations [1]: had potential to induce reverse mutations | potential to induce reverse mutations [2]: had potential to induce reverse mutations | potential to induce reverse mutations [3]: had potential to induce reverse mutations

Nc1cc(-c2cccc(OC(F)(F)F)c2)n(-c2cccc(F)c2)n1 [Metabolite D, reference compound]
potential to induce reverse mutations [1]: had potential to induce reverse mutations | potential to induce reverse mutations [4]: had potential to induce reverse mutations
